Experimental data taken from patent US20090318370A1, “NOVEL GLYCOCONJUGATED CHLORIN DERIVATIVES AND METHOD OF PRODUCING THE SAME” (REI Medical Co., Ltd., priority 2007, published 2009).

Columns and labels:
HeLa cells [1] = assay: Evaluation of phototoxicity: WST-8 cell viability after light exposure (16 J/cm^2, halogen lamp, 500 nm cut-off filter); type: cell-based; conditions: light 16 J/cm^2
Procedure: HeLa cells were plated in a 96-well plate to give a concentration of 5×10^3 cells/well (medium volume: 100 μL), and the plate was incubated at 37° C. in 5% CO2 atmosphere for 24 hours. To each well was added 100 μL of a drug solution containing 2% dimethylsulfoxide to give a certain concentration. The plate was further incubated at 37° C. in 5% CO2 atmosphere for 24 hours. Then, the medium was discarded and the cells were washed twice with phosphate buffered saline (100 μL). To each well was added 100 μL of Dulbecco's modified Eagle's medium (DMEM) containing 10% fetal calf serum (FCS). The cells were then exposed to light (16 J/cm^2) from a 100 W halogen lamp equipped with a 500 nm cut-off filter and a water jacket. After that, the plate was further incubated at 37° C. in 5% CO2 for 24 hours. And the plate was subjected to WST-8 assay and cell viability rates were calculated as relative values to those obtained in the absence of drugs. The average values of the result from 6 replicate experiments for each drug were calculated.
The light dose was adjusted by controlling the irradiation time by using a power meter.
WST assay is one of the method to determine the activity of dehydrogenase of cells, in which tetrazolium salt (WST-8) is reduced dependently on the number of viable cells. The amount of the reduction was determined by absorption spectroscopy to provide the relative amount of viable cells.
Phototoxicity were determined for the chlorin derivatives or porphyrin derivatives which were prepared in the above Example and Comparative Example and obtained as production intermediates, and the compound from Reference Example at a drug concentration of 0.5 μM according to the above evaluation method.
For the compounds No. 6 to 9 and 14 to 16 shown in Table 1, phototoxicity was determined at a drug concentration of 0.09 μM according to the above evaluation method.

HeLa cells [2] = conditions: non-patent reference 1; cited from earlier work
some cells = conditions: non patent reference 2; cited from earlier work
[3] = drug concentration 0.5 μM, FIG. 3
[4] = drug concentration 0.09 μM, FIG. 4

Compound | phototoxicity compared with commercially available TPPS (No. 14) (HeLa cells [1]; [3]) | phototoxicity of acetyl-protected compound compared with No. 6, 7, 8, 9 respectively (HeLa cells [1]; [3]) | effect of sugar linkage on phototoxicity (HeLa cells [1]; [4]) | phototoxicity compared with non-glycoconjugated compound (No. 1, 2, 3, 4 respectively) (HeLa cells [1]; [3]) | also measured
5,10,15,20-tetrakis[3-(β-D-glucopyranosyloxy)phenyl]chlorin [compound 15] | higher phototoxicity |  |  |  | cytotoxicity by irradiation with light (HeLa cells [2]): show cytotoxicity by irradiation with light; cytotoxicity in the dark (HeLa cells [2]): no cytotoxicity is found in the dark
5,10,15,20-tetrakis[4-(2,3,4,6-tetra-O-acetyl-β-D-glucopyranosylthio)-2,3,5,6-tetrafluorophenyl]-2,3-[methano(N-methyl)iminomethano]chlorin [compound 12] |  | phototoxicity was disappeared |  |  | 
OC[C@H]1OC(Sc2c(F)c(F)c(-c3c4nc(c(-c5c(F)c(F)c(SC6O[C@H](CO)[C@@H](O)[C@H](O)[C@H]6O)c(F)c5F)c5ccc([nH]5)c(-c5c(F)c(F)c(SC6O[C@H](CO)[C@@H](O)[C@H](O)[C@H]6O)c(F)c5F)c5nc(c(-c6c(F)c(F)c(SC7O[C@H](CO)[C@@H](O)[C@H](O)[C@H]7O)c(F)c6F)c6ccc3[nH]6)C=C5)C=C4)c(F)c2F)[C@H](O)[C@@H](O)[C@@H]1O (some centres unmarked) [5,10,15,20-tetrakis(4,1′-thio-glucosyl-2,3,5,6-tetrafluorophenyl)porphyrin] |  |  |  |  | cell death with irradiation of light (some cells): cell death can be observed with irradiation of light
CN1CC2c3nc(c(-c4c(F)c(F)c(F)c(F)c4F)c4ccc([n-]4)c(-c4c(F)c(F)c(F)c(F)c4F)c4nc(c(-c5c(F)c(F)c(F)c(F)c5F)c5ccc([n-]5)c3-c3c(F)c(F)c(F)c(F)c3F)C=C4)C2C1.[Pd+2] (centres unmarked) [compound 4, {5,10,15,20-tetrakis(pentafluorophenyl)-2,3-[methano(N-methyl)iminomethano]chlorinato}palladium] |  |  |  |  | phototoxicity of metal complex compared with compound No. 3 (HeLa cells [1]; [3]): phototoxicity increased
OC[C@H]1O[C@@H](Sc2c(F)c(F)c(-c3c4nc(c(-c5c(F)c(F)c(S[C@@H]6O[C@H](CO)[C@@H](O)[C@H](O)[C@H]6O)c(F)c5F)c5ccc([nH]5)c(-c5c(F)c(F)c(S[C@@H]6O[C@H](CO)[C@@H](O)[C@H](O)[C@H]6O)c(F)c5F)c5nc(c(-c6c(F)c(F)c(S[C@@H]7O[C@H](CO)[C@@H](O)[C@H](O)[C@H]7O)c(F)c6F)c6ccc3[nH]6)C=C5)C=C4)c(F)c2F)[C@H](O)[C@@H](O)[C@@H]1O [compound 6, 5,10,15,20-tetrakis[4-(β-D-glucopyranosylthio)-2,3,5,6-tetrafluorophenyl]porphyrin, reference compound] | higher phototoxicity |  | did not result in any improvement effect of phototoxicity | higher phototoxicity | 
OCC1OC(Sc2c(F)c(F)c(-c3c4nc(c(-c5c(F)c(F)c(SC6OC(CO)C(O)C(O)C6O)c(F)c5F)c5ccc([n-]5)c(-c5c(F)c(F)c(SC6OC(CO)C(O)C(O)C6O)c(F)c5F)c5nc(c(-c6c(F)c(F)c(SC7OC(CO)C(O)C(O)C7O)c(F)c6F)c6ccc3[n-]6)C=C5)C=C4)c(F)c2F)C(O)C(O)C1O.[Pd+2] [compound 7, {5,10,15,20-tetrakis[4-(β-D-glucopyranosylthio)-2,3,5,6-tetrafluorophenyl]porphyrinato}palladium (II), reference compound] | higher phototoxicity |  | did not result in any improvement effect of phototoxicity | higher phototoxicity | 
CN1C[C@@H]2c3nc(c(-c4c(F)c(F)c(S[C@@H]5O[C@H](CO)[C@@H](O)[C@H](O)[C@H]5O)c(F)c4F)c4ccc([nH]4)c(-c4c(F)c(F)c(S[C@@H]5O[C@H](CO)[C@@H](O)[C@H](O)[C@H]5O)c(F)c4F)c4nc(c(-c5c(F)c(F)c(S[C@@H]6O[C@H](CO)[C@@H](O)[C@H](O)[C@H]6O)c(F)c5F)c5ccc([nH]5)c3-c3c(F)c(F)c(S[C@@H]5O[C@H](CO)[C@@H](O)[C@H](O)[C@H]5O)c(F)c3F)C=C4)[C@@H]2C1 [compound 8, 5,10,15,20-tetrakis[4-(β-D-glucopyranosylthio)-2,3,5,6-tetrafluorophenyl]-2,3-[methano(N-methyl)iminomethano]chlorin] | higher phototoxicity |  | distinguished improvement of phototoxicity | higher phototoxicity | phototoxicity compared with O-glycosylated chlorin derivative No. 15 (HeLa cells [1]; [4]): higher phototoxicity; phototoxicity compared with galactose-linked derivative No. 16 (HeLa cells [1]; drug concentration 0.09 μM, FIG. 5): higher phototoxicity; phototoxicity compared with No. 6, 7 and No. 15 (HeLa cells [1]; drug concentration 0.5 μM): no difference in phototoxicity; phototoxicity compared with O-glycosylated chlorin derivative No. 15 (HeLa cells [1]; drug concentration 0.5 μM): not any differences in phototoxicity
CN1CC2c3nc(c(-c4c(F)c(F)c(SC5OC(CO)C(O)C(O)C5O)c(F)c4F)c4ccc([n-]4)c(-c4c(F)c(F)c(SC5OC(CO)C(O)C(O)C5O)c(F)c4F)c4nc(c(-c5c(F)c(F)c(SC6OC(CO)C(O)C(O)C6O)c(F)c5F)c5ccc([n-]5)c3-c3c(F)c(F)c(SC5OC(CO)C(O)C(O)C5O)c(F)c3F)C=C4)C2C1.[Pd+2] [compound 9, {5,10,15,20-tetrakis[4-(β-D-glucopyranosylthio)-2,3,5,6-tetrafluorophenyl]-2,3-[methano(N-methyl)iminomethano]chlorinato}palladium (II)] | higher phototoxicity |  | distinguished improvement of phototoxicity | higher phototoxicity | phototoxicity compared with O-glycosylated chlorin derivative No. 15 (HeLa cells [1]; [4]): higher phototoxicity; phototoxicity compared with No. 6, 7 and No. 15 (HeLa cells [1]; drug concentration 0.5 μM): no difference in phototoxicity; phototoxicity compared with O-glycosylated chlorin derivative No. 15 (HeLa cells [1]; drug concentration 0.5 μM): not any differences in phototoxicity
CC(=O)OC[C@H]1O[C@@H](Sc2c(F)c(F)c(-c3c4nc(c(-c5c(F)c(F)c(S[C@@H]6O[C@H](COC(C)=O)[C@@H](OC(C)=O)[C@H](OC(C)=O)[C@H]6OC(C)=O)c(F)c5F)c5ccc([nH]5)c(-c5c(F)c(F)c(S[C@@H]6O[C@H](COC(C)=O)[C@@H](OC(C)=O)[C@H](OC(C)=O)[C@H]6OC(C)=O)c(F)c5F)c5nc(c(-c6c(F)c(F)c(S[C@@H]7O[C@H](COC(C)=O)[C@@H](OC(C)=O)[C@H](OC(C)=O)[C@H]7OC(C)=O)c(F)c6F)c6ccc3[nH]6)C=C5)C=C4)c(F)c2F)[C@H](OC(C)=O)[C@@H](OC(C)=O)[C@@H]1OC(C)=O [compound 10, 5,10,15,20-tetrakis(4-(2,3,4,6-tetra-O-acetyl-β-D-glucopyranosylthio)-2,3,5,6-tetrafluorophenyl)porphyrin, reference compound] |  | phototoxicity was disappeared |  |  | 
CC(=O)OCC1OC(Sc2c(F)c(F)c(-c3c4nc(c(-c5c(F)c(F)c(SC6OC(COC(C)=O)C(OC(C)=O)C(OC(C)=O)C6OC(C)=O)c(F)c5F)c5ccc([n-]5)c(-c5c(F)c(F)c(SC6OC(COC(C)=O)C(OC(C)=O)C(OC(C)=O)C6OC(C)=O)c(F)c5F)c5nc(c(-c6c(F)c(F)c(SC7OC(COC(C)=O)C(OC(C)=O)C(OC(C)=O)C7OC(C)=O)c(F)c6F)c6ccc3[n-]6)C=C5)C=C4)c(F)c2F)C(OC(C)=O)C(OC(C)=O)C1OC(C)=O.[Pd+2] [compound 11, {5,10,15,20-tetrakis[4-(2,3,4,6-tetra-O-acetyl-β-D-glucopyranosylthio)-2,3,5,6-tetrafluorophenyl]porphyrinato}palladium (II), reference compound] |  | phototoxicity was disappeared |  |  | 
CC(=O)OCC1OC(Sc2c(F)c(F)c(-c3c4nc(c(-c5c(F)c(F)c(SC6OC(COC(C)=O)C(OC(C)=O)C(OC(C)=O)C6OC(C)=O)c(F)c5F)c5ccc([n-]5)c(-c5c(F)c(F)c(SC6OC(COC(C)=O)C(OC(C)=O)C(OC(C)=O)C6OC(C)=O)c(F)c5F)c5nc(c(-c6c(F)c(F)c(SC7OC(COC(C)=O)C(OC(C)=O)C(OC(C)=O)C7OC(C)=O)c(F)c6F)c6ccc3[n-]6)C3CN(C)CC53)C=C4)c(F)c2F)C(OC(C)=O)C(OC(C)=O)C1OC(C)=O.[Pd+2] [compound 13, {5,10,15,20-tetrakis[4-(2,3,4,6-tetra-O-acetyl-β-D-glucopyranosylthio)-2,3,5,6-tetrafluorophenyl]-2,3-[methano(N-methyl)iminomethano]chlorinato}palladium (II)] |  | phototoxicity was disappeared |  |  | 
CN1CC2c3nc(c(-c4c(F)c(F)c(S[C@@H]5O[C@H](CO)[C@H](O)[C@H](O)[C@H]5O)c(F)c4F)c4ccc([nH]4)c(-c4c(F)c(F)c(S[C@@H]5O[C@H](CO)[C@H](O)[C@H](O)[C@H]5O)c(F)c4F)c4nc(c(-c5c(F)c(F)c(S[C@@H]6O[C@H](CO)[C@H](O)[C@H](O)[C@H]6O)c(F)c5F)c5ccc([nH]5)c3-c3c(F)c(F)c(S[C@@H]5O[C@H](CO)[C@H](O)[C@H](O)[C@H]5O)c(F)c3F)C=C4)C2C1 (stereo partly drawn) [compound 16, 5,10,15,20-tetrakis[4-(β-D-galactopyranosylthio)-2,3,5,6-tetrafluorophenyl]-2,3-[methano(N-methyl)iminomethano]chlorin] | higher phototoxicity |  |  |  | 
